In PMC6104183, “How Female Mice Attract Males: A Urinary Volatile Amine Activates a Trace Amine-Associated Receptor That Induces Male Sexual Interest” (Frontiers in Pharmacology, 2018) one finds EC50 data, which are given here for 1 molecule.

The target of the experiment is T1, TAAR3 (Mus musculus, UniProt Q5QD16).
T1 construct: transiently expressed with Galpha-olf in HEK293 cells
T1 sequence (Q5QD16 1-343): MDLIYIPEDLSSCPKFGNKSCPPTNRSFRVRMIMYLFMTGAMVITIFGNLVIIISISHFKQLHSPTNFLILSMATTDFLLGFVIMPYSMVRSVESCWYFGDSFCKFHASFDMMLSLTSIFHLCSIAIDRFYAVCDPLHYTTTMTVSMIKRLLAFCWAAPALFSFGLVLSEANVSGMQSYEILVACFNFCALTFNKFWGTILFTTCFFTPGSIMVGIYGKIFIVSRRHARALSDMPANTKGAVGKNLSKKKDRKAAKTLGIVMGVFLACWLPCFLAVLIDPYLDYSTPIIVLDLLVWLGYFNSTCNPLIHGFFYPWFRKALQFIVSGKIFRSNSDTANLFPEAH
The experiment is described as follows: cAMP accumulation, HEK293 cells, luminescence. It counts as cell-based. On the technique in general: cAMP levels reflect the balance of adenylyl cyclase and phosphodiesterase activity.

Molecules are shown by their SMILES.

Broadly, the EC50 is the concentration at which the effect is half-maximal. A high value points to weaker potency. For `CC(C)CN` [isobutylamine], a half-maximal response (EC50) required 32 nM.
